Results published in patent US9657147B2, “Method for preparing glycolide polyester by ring opening polymerization” (TEKNOLOGIAN TUTKIMUSKESKUS VTT OY, priority 2011, dated 2017).

Assay: Test of solubility of the starting materials and homopolyglycolide in organic solvents
Text: A solvent which could be used in the ring opening polymerization should meet criteria: i) the solvent should be good enough to dissolve all starting materials including monomer (glycolide), co-monomer, initiator, catalyst and dispersion stabilizer, and ii) it should not dissolve resulting polymer (homopolyglycolide and co-polymers).

solution concentration permitted in acetonitrile (solvent acetonitrile): 50 wt-%
solubility in Toluene (solvent toluene): bad
SMILES: O=C1COC(=O)CO1 [Glycolide]
